Consider eleven compounds from patent US20100144743A1, “COMPOSITIONS AND METHODS FOR INHIBITION OF TYROSINE KINASES” (BOARD OF REGENTS, THE UNIVERSITY OF TEXAS SYSTEM, priority 2006, published 2010).

Where “and” joins values, the source holds several entries; their conditions need not be identical. Identical values can stand only once. Like-named read-outs stand apart in the source and are kept apart here.

One data set relates to HIF-1. The data set can be described thus: HIF-1 GFP/DsRFP expression (G/R) in C6#4 cells stimulated by CoCl2. Format: cell-based.

Consider `COc1cc(Nc2nccn3c(-c4cccc(C(C)=O)c4)cnc23)cc(OC)c1OC` [LG2-75], for which, in the data set on HIF-1, the “G/R:WST-1 Ratio Mean” value is 1.2 and 1.233. The EC50 in the data set on HIF-1 (read-out: G/R (EC-50)) came to 14.8 µM; in the data set on HIF-1 (read-out: G/R (EC-50) 1 ex), 4.37 µM; in the data set on HIF-1 (read-out: G/R (EC-50) 2 ex) it was 16.3 µM; in the data set with HIF-1 (read-out: G/R (EC-50) 3 ex), 23.7 µM; in the data set with HIF-1 (read-out: G/R (REC-50) Mean), 14.8 µM; in the data set with C6#4 cells (read-out: WST-1 (EC-50)) it was 16.8 µM. For the same compound, the EC50 with C6#4 cells (read-out: WST-1 (EC-50) 1 ex) was found to be 7.04 µM; in the data set on C6#4 cells (read-out: WST-1 (EC-50) 2 ex), 16.4 µM; with C6#4 cells (read-out: WST-1 (EC-50) 3 ex) it was 26.8 µM; in the data set on C6#4 cells (read-out: WST-1 (EC-50) Mean), 16.8 µM.
Take `COc1ccc(Nc2nccn3c(-c4cccc(C(N)=O)c4)cnc23)cc1` [LG2-13]: the EC50 is 7.95 µM with HIF-1 (read-out: EC 50 G/R); 6.9 µM with HIF-1 (read-out: G/R (EC-50) 2 ex); 8.97 µM in the data set on HIF-1 (read-out: G/R (EC-50) 3 ex); 7.08 µM in the data set on C6#4 cells (read-out: WST-1 (EC-50) 1 ex); 101 µM in the data set with C6#4 cells (read-out: WST-1 (EC-50) 2 ex); 99.7 µM in the data set on C6#4 cells (read-out: WST-1 (EC-50) 3 ex). The cytotoxicity entry with C6#4 cells is “doesn't have cytotoxicity”.
For the compound `CC(C)c1ccc(Nc2nccn3c(-c4cccc(O)c4)cnc23)cc1` [LG2-65], the EC50 worked out at 9070 µM with HIF-1 (C6#4 cells, experiment 1, read-out: G/R (EC-50) 1 ex); 3860 µM in the data set with HIF-1 (C6#4 cells, experiment 2, read-out: G/R (EC-50) 2 ex); 5670 µM with HIF-1 (C6#4 cells, experiment 3, read-out: G/R (EC-50) 3 ex); 56.4 µM in the data set on C6#4 cells (read-out: WST-1 (EC-50) 1 ex, C6#4 cells, experiment 1). Besides, in the data set with C6#4 cells (concentration 200 μM), the “influence on C6#4 cells” value is “doesn't influence”.
`COc1cc(-c2cnc3c(Nc4ccccc4)nccn23)ccc1O` [LG2-62]: in the data set on HIF-1, the “G/R:WST-1 Ratio Mean” value was 1.5 and 1.533. Also, the EC50 in the data set with HIF-1 (read-out: G/R (EC-50)) was 18.9 µM; in the data set with HIF-1 (read-out: G/R (EC-50) 1 ex), 13.5 µM; with HIF-1 (read-out: G/R (EC-50) 2 ex), 24.4 µM; in the data set on HIF-1 (read-out: G/R (EC-50) 3 ex) it was 18.9 µM; in the data set on HIF-1 (read-out: G/R (REC-50) Mean), 18.9 µM; in the data set on C6#4 cells (read-out: WST-1 (EC-50)), 30.1 µM. In addition, the EC50 in the data set on C6#4 cells (read-out: WST-1 (EC-50) 1 ex) amounted to 19.5 µM; in the data set on C6#4 cells (read-out: WST-1 (EC-50) 2 ex), 43.9 µM; in the data set with C6#4 cells (read-out: WST-1 (EC-50) 3 ex), 27.1 µM; with C6#4 cells (read-out: WST-1 (EC-50) Mean) it was 30.1 µM.
Consider `COc1cccc(-c2cnc3c(Nc4ccccc4)nccn23)c1` [LG2-85], for which the “G/R:WST-1 Ratio Mean” value in the data set on HIF-1 is 2.0 and 2.033. The EC50 in the data set on HIF-1 (read-out: G/R (EC-50)) was found to be 23.5 µM; in the data set on HIF-1 (read-out: G/R (EC-50) 1 ex), 23.9 µM; in the data set on HIF-1 (read-out: G/R (EC-50) 2 ex), 23.1 µM; in the data set with HIF-1 (read-out: G/R (EC-50) 3 ex), 23.5 µM; with HIF-1 (read-out: G/R (REC-50) Mean) it was 23.5 µM; with C6#4 cells (read-out: WST-1 (EC-50)), 48.1 µM. Further, the EC50 was 34.8 µM in the data set on C6#4 cells (read-out: WST-1 (EC-50) 1 ex), 41.6 µM in the data set on C6#4 cells (read-out: WST-1 (EC-50) 2 ex), 67.9 µM in the data set with C6#4 cells (read-out: WST-1 (EC-50) 3 ex) and 48.1 µM with C6#4 cells (read-out: WST-1 (EC-50) Mean).
Regarding `c1ccc2c(-c3cnc4c(Nc5ccc6[nH]ccc6c5)nccn34)cccc2c1` [LG2-89], the “G/R:WST-1 Ratio Mean” value in the data set on HIF-1 was 1.4 and 1.383. Moreover, the EC50 in the data set on HIF-1 (read-out: G/R (EC-50)) came to 27.9 µM; with HIF-1 (read-out: G/R (EC-50) 1 ex) it was 13.7 µM; with HIF-1 (read-out: G/R (EC-50) 2 ex) it was 42.7 µM; in the data set with HIF-1 (read-out: G/R (EC-50) 3 ex) it was 27.2 µM; in the data set with HIF-1 (read-out: G/R (REC-50) Mean) it was 27.9 µM; in the data set on C6#4 cells (read-out: WST-1 (EC-50)), 35.4 µM. The EC50 with C6#4 cells (read-out: WST-1 (EC-50) 1 ex) came out at 21.4 µM; in the data set on C6#4 cells (read-out: WST-1 (EC-50) 2 ex), 40.4 µM; in the data set with C6#4 cells (read-out: WST-1 (EC-50) 3 ex), 44.4 µM; with C6#4 cells (read-out: WST-1 (EC-50) Mean), 35.4 µM.
Take `c1ccc(Oc2ccc(Nc3nccn4c(-c5ccc6[nH]ccc6c5)cnc34)cc2)cc1` [LG2-7]: in the data set with HIF-1, the “G/R:WST-1 Ratio Mean” value was 5.6 and 5.633. Besides, the EC50 in the data set with HIF-1 (read-out: G/R (EC-50)) worked out at 9.1 µM; with HIF-1 (read-out: G/R (EC-50) 1 ex), 14.2 µM; with HIF-1 (read-out: G/R (EC-50) 2 ex), 9.34 µM; in the data set with HIF-1 (read-out: G/R (EC-50) 3 ex) it was 3.89 µM; with HIF-1 (read-out: G/R (REC-50) Mean), 9.15 µM; in the data set on C6#4 cells (read-out: WST-1 (EC-50)), 35.2 µM. Further, the EC50 in the data set with C6#4 cells (read-out: WST-1 (EC-50) 1 ex) came to 23 µM; in the data set on C6#4 cells (read-out: WST-1 (EC-50) 2 ex) it was 39.9 µM; in the data set with C6#4 cells (read-out: WST-1 (EC-50) 3 ex), 42.7 µM; with C6#4 cells (read-out: WST-1 (EC-50) Mean), 35.2 µM.
With `CN(C)CCNC(=O)c1ccc(-c2cnc3c(Nc4ccc(Oc5ccccc5)cc4)nccn23)cc1` [LG2-11], in the data set with HIF-1, the “G/R:WST-1 Ratio Mean” value is 2.2 and 2.237. Also, the EC50 came out at 10.9 µM with HIF-1 (read-out: G/R (EC-50) 1 ex); 15.7 µM in the data set with HIF-1 (read-out: G/R (EC-50) 2 ex); 6.07 µM with HIF-1 (read-out: G/R (EC-50) 3 ex); 19.6 µM with C6#4 cells (read-out: WST-1 (EC-50)); 18.1 µM with C6#4 cells (read-out: WST-1 (EC-50) 1 ex); 16.6 µM in the data set on C6#4 cells (read-out: WST-1 (EC-50) 2 ex). Further, the EC50 was determined as 24.2 µM in the data set with C6#4 cells (read-out: WST-1 (EC-50) 3 ex) and 19.6 µM with C6#4 cells (read-out: WST-1 (EC-50) Mean).
`CC(=O)c1cccc(-c2cnc3c(Nc4ccc(N5CCOCC5)cc4)nccn23)c1` [LG2-81]: the “G/R:WST-1 Ratio Mean” value in the data set on HIF-1 worked out at 3.7. Also, the EC50 with HIF-1 (read-out: G/R (EC-50)) stood at 10.5 µM; with HIF-1 (read-out: G/R (EC-50) 1 ex), 8.66 µM; in the data set with HIF-1 (read-out: G/R (EC-50) 2 ex), 12.2 µM; with HIF-1 (read-out: G/R (EC-50) 3 ex), 10.5 µM; in the data set on HIF-1 (read-out: G/R (REC-50) Mean), 10.5 µM; in the data set on C6#4 cells (read-out: WST-1 (EC-50)) it was 38.8 µM. The EC50 in the data set with C6#4 cells (read-out: WST-1 (EC-50) 1 ex) is 32.2 µM; with C6#4 cells (read-out: WST-1 (EC-50) 2 ex), 40.2 µM; with C6#4 cells (read-out: WST-1 (EC-50) 3 ex) it was 43.9 µM; with C6#4 cells (read-out: WST-1 (EC-50) Mean), 38.8 µM.
Take `COc1cc(OC)cc(-c2cnc3c(NCC4CC4)nccn23)c1` [LG2-102]: the EC50 in the data set on HIF-1 (read-out: G/R (EC-50)) was determined as 37.4 µM; with C6#4 cells (read-out: WST-1 (EC-50)), 52.7 µM.
Consider `O=C(NCCO)c1cccc(-c2cnc3c(NCc4cccs4)nccn23)c1` [LG2-98], for which, in the data set on HIF-1 (C6#4 cells, 24 h exposure, GFP normalized to RFP, Table 2, read-out: G/R (EC-50)), the EC50 worked out at 20.4 µM.
